This is an account of results in US20160242450A1, “Functional-gel Compositions and Methods” (priority 2014, published 2016).

This assay can be described thus: Energy intake and weight loss rodent study, preloads before high fat diet (Experiment 2). The following applies: mice on high fat diet, daily preload one hour before diet. The format is in vivo. The source says:
Fifteen adult female feeder mice were preconditioned for 15 days on a […]. PicoLab Rodent diet 20 was supplemented to […] by adding a mixture of fats consisting of (38% butter, 30% shortening, 23% lard, and 8% canola oil). High fat diet was provided ad libitum. After the pre-conditioning period mice were assigned to one of four groups ([…]) to generate similar mean body weights between groups as described below. Mice were given control or test article preloads one hour prior to receiving ad libitum high fat diet on a daily basis, mice received high fat diet at ad libitum over night (rodent active period of the day) and were fasted during day time hours (the rodent dormant period of the day). Body weights were obtained on Day 15 and Day 30 post treatment initiation and data was used to calculate change in body weight from baseline, Day 0. Mean body weights (FIG. 1) and % change in body weight (FIG. 2) data is provided with corresponding SEM. Partially hydrolyzed collagen (GEL group) test article was hydrated in 10× in hot water then allowed to set to firm gel 4-8° C. overnight. Wheat Flour (FLOU group) and Psyllium (PSY group) test articles were hydrated in water. Wheat Flour was cooked via microwave for 2 min at an 800 Watt setting.

Take `CCCCCCCCCCC[C@@H](C[C@@H]1OC(=O)[C@H]1CCCCCC)OC(=O)[C@H](CC(C)C)NC=O` [ALLI, Orlistat]: the “Body weight change over a 30 day treatment period (FIG. 1, FIG. 2)” value is recorded as “weight loss”.
